# Results from PubChem BioAssay AID310 (DTP/NCI, 2004).
# Values joined by “and” are separate entries in the source; they are usually repeats but may differ in a detail not shown here. Equal entries are not always repeated. Records with an inconclusive call do not appear.
# Test system: C3AKF1 mice, osteogenic sarcoma HE10734 s.c., tumor weight T/C
# Test: NCI In Vivo Anticancer Drug Screen. Data for tumor model Osteogenic Sarcoma HE 10734 (subcutaneous) in C3AKF1 (CHKRF1) mice
# Conditions: endpoint: mean tumor weight, schedule: Q01DX010 (ip), higher = larger tumour
# Method: The antitumor activity of compounds was measured in mice bearing transplantable tumors. Survival or tumor size were measured and the results are expressed as the measurement made in the treated group (T) divided by the measurement made in the vehicle treated control group (C). The tumor model used in this assay is Osteogenic Sarcoma HE 10734 (subcutaneous) in C3AKF1 (CHKRF1) mice
# [1] = dose: 125.0 mg/kg/injection, vehicle: carboxymethylcellulose (CMC)
# [2] = dose: 62.0 mg/kg/injection, vehicle: saline
# [3] = dose: 125.0 mg/kg/injection, vehicle: saline
# [4] = dose: 25.0 mg/kg/injection, vehicle: carboxymethylcellulose (CMC)
# [5] = dose: 50.0 mg/kg/injection, vehicle: carboxymethylcellulose (CMC)
# [6] = dose: 12.0 mg/kg/injection, vehicle: saline
# [7] = dose: 25.0 mg/kg/injection, vehicle: saline
# [8] = dose: 50.0 mg/kg/injection, vehicle: saline
# [9] = dose: 100.0 mg/kg/injection, vehicle: saline
# [10] = dose: 15.0 mg/kg/injection, vehicle: saline
# [11] = dose: 23.0 mg/kg/injection, vehicle: saline
# [12] = dose: 35.0 mg/kg/injection, vehicle: saline
# [13] = dose: 45.0 mg/kg/injection, vehicle: carboxymethylcellulose (CMC)
# [14] = dose: 250.0 mg/kg/injection, vehicle: saline
# [15] = dose: 500.0 mg/kg/injection, vehicle: saline
# [16] = dose: 10.0 mg/kg/injection, vehicle: carboxymethylcellulose (CMC)
# [17] = dose: 55.0 mg/kg/injection, vehicle: carboxymethylcellulose (CMC)
# [18] = dose: 85.0 mg/kg/injection, vehicle: carboxymethylcellulose (CMC)
# [19] = dose: 100.0 mg/kg/injection, vehicle: carboxymethylcellulose (CMC)
compound,measurement,setting,value
CS(=O)(=O)OC[C@@H](O)[C@@H](O)COS(C)(=O)=O,T/C,"dose: 62.5 mg/kg/injection, vehicle: carboxymethylcellulose (CMC)",88 % of control
same,T/C,[1],53 % of control and 74 % of control
same,T/C,"dose: 500.0 mg/kg/injection, vehicle: carboxymethylcellulose (CMC)",92 % of control and 109 % of control
CC(C)CCSc1nc(N)nc2nc[nH]c12,T/C,[2],64 % of control
same,T/C,[3],75 % of control
CCCCCCC(=O)NC1=C(N2CC2)C(=O)C(NC(=O)CCCCCC)=C(N2CC2)C1=O,T/C,"dose: 15.0 mg/kg/injection, vehicle: carboxymethylcellulose (CMC)",104 % of control
same,T/C,"dose: 30.0 mg/kg/injection, vehicle: carboxymethylcellulose (CMC)",83 % of control
same,T/C,"dose: 60.0 mg/kg/injection, vehicle: carboxymethylcellulose (CMC)",50 % of control
same,T/C,"dose: 120.0 mg/kg/injection, vehicle: carboxymethylcellulose (CMC)",33 % of control
Nc1nc(SCc2ccccc2Cl)c2ncn(C3OC(CO)C(O)C3O)c2n1 (centres undefined),T/C,"dose: 12.5 mg/kg/injection, vehicle: carboxymethylcellulose (CMC)",90 % of control
same,T/C,[4],81 % of control
same,T/C,[5],61 % of control
O=c1n(CCCl)c(=O)n(CCCl)c(=O)n1CCCl,T/C,"dose: 31.0 mg/kg/injection, vehicle: saline",81 % of control
same,T/C,[2],83 % of control
same,T/C,[3],75 % of control
same,T/C,"dose: 370.0 mg/kg/injection, vehicle: saline",116 % of control
CCC[CH2][Sn]([CH2]CCC)([CH2]CCC)[O]C(=O)CC[S][Sn]([CH2]CCC)([CH2]CCC)[CH2]CCC,T/C,"dose: 0.75 mg/kg/injection, vehicle: saline",124 % of control
same,T/C,"dose: 1.5 mg/kg/injection, vehicle: saline",90 % of control
same,T/C,"dose: 6.0 mg/kg/injection, vehicle: saline",72 % of control
same,T/C,[6],89 % of control
same,T/C,"dose: 24.0 mg/kg/injection, vehicle: saline",30 % of control
CCn1cnc2c(SC)nc(N)nc21,T/C,[6],76 % of control
same,T/C,[7],93 % of control
same,T/C,[8],95 % of control
same,T/C,[9],108 % of control
same,T/C,"dose: 340.0 mg/kg/injection, vehicle: saline",57 % of control
O=C(O)C1(NO)CCCC1,T/C,[10],88 % of control
same,T/C,[11],112 % of control
same,T/C,[12],71 % of control
same,T/C,"dose: 112.0 mg/kg/injection, vehicle: saline",29 % of control
S=C(N=Nc1ccccc1)NNc1ccccc1,T/C,[13],95 % of control
same,T/C,"dose: 65.0 mg/kg/injection, vehicle: carboxymethylcellulose (CMC)",49 % of control
Nc1nc(SCc2ccc([N+](=O)[O-])cc2)c2[nH]cnc2n1,T/C,[3],86 % of control
same,T/C,[14],89 % of control
same,T/C,[15],58 % of control
same,T/C,"dose: 1000.0 mg/kg/injection, vehicle: saline",59 % of control
O=S1(=O)CCCO1,T/C,"dose: 40.0 mg/kg/injection, vehicle: carboxymethylcellulose (CMC)",75 % of control
same,T/C,"dose: 80.0 mg/kg/injection, vehicle: carboxymethylcellulose (CMC)",76 % of control
NC(CCSCc1ccc(N(CCCl)CCCl)cc1)C(=O)O (centres undefined),T/C,"dose: 4.5 mg/kg/injection, vehicle: saline",74 % of control
same,T/C,"dose: 9.0 mg/kg/injection, vehicle: saline",105 % of control and 118 % of control
same,T/C,"dose: 54.0 mg/kg/injection, vehicle: saline",39 % of control
CC1(C)N=C(N)N=C(N)N1c1cccc(Br)c1,T/C,"dose: 4.4 mg/kg/injection, vehicle: carboxymethylcellulose (CMC)",89 % of control
same,T/C,"dose: 6.6 mg/kg/injection, vehicle: carboxymethylcellulose (CMC)",102 % of control
same,T/C,[16],50 % of control and 51 % of control
NC1(C(=O)O)CCCC1,T/C,[10],109 % of control
same,T/C,[11],46 % of control
same,T/C,[12],77 % of control
same,T/C,[17],30 % of control and 42 % of control
same,T/C,"dose: 55.0 mg/kg/injection, vehicle: saline",46 % of control
same,T/C,[18],27 % of control and 45 % of control
N#CCSc1nc(N)nc2nc[nH]c12,T/C,"dose: 2.0 mg/kg/injection, vehicle: carboxymethylcellulose (CMC)",90 % of control
same,T/C,"dose: 4.0 mg/kg/injection, vehicle: carboxymethylcellulose (CMC)",107 % of control
same,T/C,"dose: 8.0 mg/kg/injection, vehicle: carboxymethylcellulose (CMC)",86 % of control
same,T/C,"dose: 16.0 mg/kg/injection, vehicle: carboxymethylcellulose (CMC)",91 % of control
same,T/C,"dose: 24.0 mg/kg/injection, vehicle: carboxymethylcellulose (CMC)",113 % of control
same,T/C,"dose: 35.0 mg/kg/injection, vehicle: carboxymethylcellulose (CMC)",93 % of control
same,T/C,[17],90 % of control and 100 % of control
same,T/C,[18],44 % of control
same,T/C,[1],22 % of control
CC[C@H]1CN2CCc3cc(OC)c(OC)cc3[C@@H]2C[C@@H]1C[C@H]1NCCc2cc(OC)c(OC)cc21,T/C,"dose: 1.0 mg/kg/injection, vehicle: saline",82 % of control
same,T/C,"dose: 2.0 mg/kg/injection, vehicle: saline",82 % of control
CN(C)Nc1ncnc2nc[nH]c12,T/C,"dose: 20.0 mg/kg/injection, vehicle: saline",84 % of control
same,T/C,"dose: 40.0 mg/kg/injection, vehicle: saline",72 % of control
same,T/C,"dose: 80.0 mg/kg/injection, vehicle: saline",38 % of control
COc1cc([C@@H]2c3cc4c(cc3[C@H](O)[C@H]3COC(=O)[C@@H]23)OCO4)cc(OC)c1OC,T/C,"dose: 7.0 mg/kg/injection, vehicle: saline",75 % of control
c1ccc(CSc2ncnc3nc[nH]c23)nc1,T/C,[8],76 % of control and 81 % of control
same,T/C,[9],29 % of control and 39 % of control
CC(C)([NH-])CO.CC(C)([NH-])CO.[Cl][Cd][Cl],T/C,"dose: 2.5 mg/kg/injection, vehicle: carboxymethylcellulose (CMC)",88 % of control
same,T/C,"dose: 5.0 mg/kg/injection, vehicle: carboxymethylcellulose (CMC)",57 % of control
same,T/C,[16],25 % of control
CCN(CC)CCN1C(=O)c2cccc3cccc(c23)C1=O,T/C,[4],86 % of control
same,T/C,[5],78 % of control
same,T/C,[19],85 % of control
Fc1ccc(CSc2ncnc3c2ncn3C2CCCCO2)cc1 (centres undefined),T/C,[2],81 % of control
same,T/C,[3],71 % of control
same,T/C,[14],93 % of control
same,T/C,[15],28 % of control
CC(/C=N/N=C(N)N)=N/N=C(N)N,T/C,"dose: 12.5 mg/kg/injection, vehicle: saline",85 % of control
same,T/C,[7],63 % of control
CCCn1cnc2c(SCc3ccccc3Cl)nc(N)nc21,T/C,[19],86 % of control
same,T/C,"dose: 200.0 mg/kg/injection, vehicle: carboxymethylcellulose (CMC)",87 % of control
same,T/C,"dose: 400.0 mg/kg/injection, vehicle: carboxymethylcellulose (CMC)",55 % of control
O=c1c[n+](-c2ccccc2)[nH]o1,T/C,"dose: 22.5 mg/kg/injection, vehicle: carboxymethylcellulose (CMC)",87 % of control
same,T/C,[13],110 % of control
same,T/C,"dose: 90.0 mg/kg/injection, vehicle: carboxymethylcellulose (CMC)",83 % of control
same,T/C,"dose: 180.0 mg/kg/injection, vehicle: carboxymethylcellulose (CMC)",70 % of control
S=c1c2[nH]cnc2ncn1CCSC1=NC=NC2=NC=NC21 (centres undefined),T/C,[8],81 % of control
same,T/C,"dose: 200.0 mg/kg/injection, vehicle: saline",35 % of control
same,T/C,"dose: 400.0 mg/kg/injection, vehicle: saline",29 % of control
